Results published in patent US9090658B2, “Base-substituted benzylamine analogs for use as coagulation factor Xa inhibitors, the production and use thereof” (The Medicines Company (Leipzig) GmbH, priority 2003, dated 2015).
pKi: −log10 of the molar value.

What was measured:
F Xa = conditions: prior art, literature values; cited from earlier work
factor Xa = target: T1, factor Xa (Bos taurus, UniProt P00743); assay: Determination of the inhibitory constants for factor Xa (chromogenic substrate Moc-D-Nle-Gly-Arg-pNA, Dixon method); type: biochemical, bovine; conditions: for pKi: bovine factor Xa, 25° C., pH 8.0, average of at least three determinations
T1 construct: purchased Diagnostic Reagents Ltd, Thame, GB
Description: Determination of the inhibitory Effect
To determine the inhibitory effect, 200 μl of this buffer (0.05 M 0.154 M NaCl, 5% Ethanol, pH 8.0; contains the inhibitor), 25 μl of substrate (Moc-D-Nle-Gly-Arg-pNA in H2O; Pentapharm Ltd., Basle, Switzerland) and 50 μl of factor Xa (bovine, Diagnostic Reagents Ltd, thame, GB) were incubated at 25° C. After 3 min, the reaction was stopped By adding 25 μl of acetic acid (50%), and the absorption at 405 nm was determined using a Microplate Reader (MR 5000, Dynatech, Denkendorf, Germany). The Ki values were Founder by the Dixon method (boichem. J. 55, 170-171, 1953) by linear regression using a Computer program. The Ki values are the average of at least three determinations. The Thrombin inhibitions was determined in analogy to a method described earlier (Stürzebecher et al., J. Med. Chem. 40, 3091-3099, 1997).

Thrombin = Thrombin (UniProt P00735); assay: Determination of the inhibitory constants for thrombin (method of Stürzebecher et al. 1997); type: biochemical
From the text: The Ki values are the average of at least three determinations.

T1 sequence (P00743 234-492 limits assumed): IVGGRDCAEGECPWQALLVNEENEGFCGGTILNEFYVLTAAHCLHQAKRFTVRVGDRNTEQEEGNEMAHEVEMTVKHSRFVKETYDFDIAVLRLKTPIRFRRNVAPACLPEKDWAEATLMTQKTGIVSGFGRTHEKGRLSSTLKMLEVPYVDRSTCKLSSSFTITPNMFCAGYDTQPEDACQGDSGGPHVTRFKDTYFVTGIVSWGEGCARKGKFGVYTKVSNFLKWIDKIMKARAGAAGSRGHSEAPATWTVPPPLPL
T1 sequence (P00743 41-180 partner limits assumed): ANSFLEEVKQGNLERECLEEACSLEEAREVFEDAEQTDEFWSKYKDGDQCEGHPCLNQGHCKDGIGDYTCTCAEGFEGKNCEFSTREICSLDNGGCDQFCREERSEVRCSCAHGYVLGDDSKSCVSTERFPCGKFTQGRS

SMILES | pKi (F Xa) | selectivity ratio SR (SR = Ki thrombin/Ki factor Xa) (factor Xa) | pKi (factor Xa) | pKi (Thrombin)
N=C(N)c1ccc(C=C2CCCCC(=Cc3ccc(C(=N)N)cc3)C2=O)cc1 [BABCH] | 7.89 | – | – | –
N=C(N)c1ccc(CNC(=O)[C@H](CCCc2ccccc2)NC(=O)C(CCc2ccncc2)NS(=O)(=O)Cc2ccccc2)cc1 (stereo partly shown) [Compound 38] | – | 30 | 8.22 | 6.74
N=C(N)c1ccc(CNC(=O)[C@H](CCC(=O)OCc2ccccc2)NC(=O)C(CCc2ccncc2)NS(=O)(=O)Cc2ccccc2)cc1 (stereo partly shown) [Compound 39] | – | 26 | 8.19 | 6.77
N=C(N)c1ccc(CNC(=O)CNC(=O)[C@@H](/C=C/c2ccccc2)NS(=O)(=O)Cc2ccccc2)cc1 [Compound 40] | – | 170 | 8.19 | 5.96
N=C(N)c1ccc(CNC(=O)CNC(=O)[C@@H](CCc2ccccc2)NS(=O)(=O)Cc2cccc(O)c2)cc1 [Compound 42] | – | 288 | 8.14 | 5.82
N=C(N)c1ccc(CNC(=O)[C@H](CCC(=O)O)NC(=O)[C@@H](CCc2ccc(O)cc2)NS(=O)(=O)Cc2ccc([N+](=O)[O-])cc2)cc1 [Compound 43] | – | 2000 | 8.12 | 4.82
COC(=O)Cc1ccc(CS(=O)(=O)NC(CCc2ccncc2)C(=O)NCC(=O)NCc2ccc(C(=N)N)cc2)cc1 (stereo not shown) [Compound 44] | – | 463 | 8.09 | 5.42
N=C(N)c1ccc(CNC(=O)CNC(=O)[C@@H](CCc2ccccc2)NS(=O)(=O)Cc2cccc(N)c2)cc1 [Compound 45] | – | 150 | 8.03 | 5.85
COC(=O)c1ccc(CS(=O)(=O)NC(CCc2ccncc2)C(=O)NCC(=O)NCc2ccc(C(=N)N)cc2)cc1 (stereo not shown) [Compound 46] | – | 775 | 8.01 | 5.12
N=C(N)c1ccc(CNC(=O)CNC(=O)C(CCc2ccncc2)NS(=O)(=O)Cc2ccc(CC(=O)O)cc2)cc1 (stereo not shown) [Compound 49] | – | 2923 | 7.89 | 4.42
N=C(N)c1ccc(CNC(=O)[C@H](CCC(=O)O)NC(=O)[C@@H](CCc2ccccc2)NS(=O)(=O)Cc2ccccc2)cc1 [Compound 50] | – | 1153 | 7.89 | 4.82
CC(C)(C)OC(=O)CC[C@H](NC(=O)[C@@H](CCc1ccncc1)NS(=O)(=O)Cc1ccc([N+](=O)[O-])cc1)C(=O)NCc1ccc(C(=N)N)cc1 [Compound 51] | – | 87 | 7.80 | 5.85
N=C(N)c1ccc(CNC(=O)[C@H](CCC(=O)O)NC(=O)[C@@H](CCc2ccncc2)NS(=O)(=O)Cc2ccc(N)cc2)cc1 [Compound 52] | – | 5250 | 7.80 | 4.08
N=C(N)c1ccc(CNC(=O)[C@H](CCCC(=O)O)NC(=O)[C@@H](CCc2ccccc2)NS(=O)(=O)Cc2ccccc2)cc1 [Compound 53] | – | 27 | 7.52 | 6.10
CC(C)(C)OC(=O)CC[C@H](NC(=O)[C@@H](CCc1ccc(O)cc1)NS(=O)(=O)Cc1ccc([N+](=O)[O-])cc1)C(=O)NCc1ccc(C(=N)N)cc1 [Compound 54] | – | 18 | 7.41 | 6.16
N=C(N)c1ccc(CNC(=O)CNC(=O)[C@@H](CCCc2ccccc2)NS(=O)(=O)Cc2ccccc2)cc1 [Compound 55] | – | 3 | 7.17 | 6.68
N=C(N)c1ccc(CNC(=O)[C@H](CCC(=O)O)NC(=O)[C@@H](CCc2ccccc2)NS(=O)(=O)Cc2cccc([N+](=O)[O-])c2)cc1 [Compound 56] | – | 156 | 7.08 | 4.89
CC(C)(C)OC(=O)CCC[C@H](NC(=O)[C@@H](CCc1ccccc1)NS(=O)(=O)Cc1ccccc1)C(=O)NCc1ccc(C(=N)N)cc1 [Compound 57] | – | 3.5 | 6.89 | 6.34
N=C(N)c1ccc(CNC(=O)CNC(=O)[C@@H](C/C=C/c2ccccc2)NS(=O)(=O)Cc2ccccc2)cc1 [Compound 58] | – | 3.1 | 6.24 | 5.74
N=C(N)c1ccc(CNC(=O)CNC(=O)[C@@H](CCc2ccccc2)NS(=O)(=O)Cc2cc[n+]([O-])cc2)cc1 [Compound 59] | – | 16 | 6.01 | 4.80
N=C(N)c1ccc(CNC(=O)CNC(=O)C(CCc2cc[n+]([O-])cc2)NS(=O)(=O)Cc2ccccc2)cc1 (stereo not shown) [Compound 60] | – | 730 | 8.32 | 5.46
N=C(N)c1ccc(CNC(=O)[C@H](CCC(=O)NCc2ccccc2)NC(=O)[C@@H](CCc2ccncc2)NS(=O)(=O)Cc2ccccc2)cc1 [Compound 61] | – | 250 | 8.17 | 5.77
CS(=O)(=O)N[C@H](CCc1ccccc1)C(=O)NCC(=O)NCc1ccc(C(=N)N)cc1 [Compound 62] | – | 1.2 | 5.97 | 5.89
CC(C)(C)OC(=O)CN[C@H](CCc1ccccc1)C(=O)NCC(=O)NCc1ccc(C(=N)N)cc1 [Compound 63] | – | 2.4 | 6.21 | 5.82
N=C(N)c1ccc(CNC(=O)CNC(=O)[C@@H](CCc2ccccc2)NCC(=O)O)cc1 [Compound 64] | – | 32 | 6.06 | 4.55
Nc1ccc(CNC(=O)CNC(=O)C(CCc2ccncc2)NS(=O)(=O)Cc2ccccc2)cn1 (stereo not shown) [Compound 65] | – | 833 | 6.92 | 4.00
